Data taken from patent publication US20230331731A1, “CRYSTAL FORM OF PYRROLO HETEROCYCLIC DERIVATIVE AND PREPARATION METHOD THEREFOR” (Jiangsu Hengrui Pharmaceuticals Co., Ltd., priority 2020, published 2023).

Columns and labels:
[1] = Influencing factor stability study; type: physicochemical; conditions: for physical and chemical stability (conclusion): high-temperature conditions (40° C. and 60° C.) and high-humidity conditions (75% and 92.5%)
[2] = Long-term/accelerated stability study; type: physicochemical; conditions: for physical and chemical stability (conclusion): long-term and accelerated stability conditions; for Purity, 1 month / physical and chemical stability (conclusion) / Crystal form: 1 month
Description: 1. The hydrobromide in crystal form α was left to stand under 25° C., 60% RH conditions and 40° C., 75% RH conditions to investigate its stability.
4. The fumarate in crystal form II was subjected to 6-month long-term (25° C., 60% RH) and accelerated (40° C., 75% RH) stability studies.

## Cn1nccc1Nc1nccc(-c2cc3n(c2)C(=O)N([C@H](CO)c2cccc(Cl)c2)C3)n1.Cn1nccc1Nc1nccc(-c2cc3n(c2)C(=O)N([C@H](CO)c2cccc(Cl)c2)C3)n1.O=C(O)/C=C/C(=O)O [Fumarate in crystal form IV]
[1]; 40° C., open, 7 days
  Color and appearance: Pale yellow solid
  Crystal form: Did not change
  Main peak purity: 99.46%
[1]; 40° C., open, 14 days
  Color and appearance: Pale yellow solid
  Crystal form: Did not change
  Main peak purity: 99.47%
[1]; 40° C., open, 30 days
  Color and appearance: Pale yellow solid
  Crystal form: Did not change
  Main peak purity: 99.26%
[1]; 60° C., open, 7 days
  Color and appearance: Pale yellow solid
  Crystal form: Did not change
  Main peak purity: 99.45%
[1]; 60° C., open, 14 days
  Color and appearance: Pale yellow solid
  Crystal form: Did not change
  Main peak purity: 99.46%
[1]; 60° C., open, 30 days
  Color and appearance: Pale yellow solid
  Crystal form: Did not change
  Main peak purity: 99.23%
[1]; 75% RH, open, 7 days
  Color and appearance: Pale yellow solid
  Crystal form: Did not change
  Main peak purity: 99.52%
[1]; 75% RH, open, 14 days
  Color and appearance: Pale yellow solid
  Crystal form: Did not change
  Main peak purity: 99.43%
[1]; 75% RH, open, 30 days
  Color and appearance: Pale yellow solid
  Crystal form: Did not change
  Main peak purity: 99.36%
[1]; 92.5% RH, open, 7 days
  Color and appearance: Pale yellow solid
  Crystal form: Did not change
  Main peak purity: 99.47%
[1]; 92.5% RH, open, 14 days
  Color and appearance: Pale yellow solid
  Crystal form: Did not change
  Main peak purity: 99.45%
[1]; 92.5% RH, open, 30 days
  Color and appearance: Pale yellow solid
  Crystal form: Did not change
  Main peak purity: 99.40%
[1]; 4500 Lux, open, 7 days
  Color and appearance: Pale yellow solid
  Crystal form: Did not change
  Main peak purity: 99.43%
[1]; 4500 Lux, open, 14 days
  Color and appearance: Pale yellow solid
  Crystal form: Did not change
  Main peak purity: 99.29%
[1]; 4500 Lux, open, 30 days
  Color and appearance: Pale yellow solid
  Crystal form: Did not change
  Main peak purity: 99.19%
[1]; Initial, 0 days
  Color and appearance: Pale yellow solid
  Crystal form: Crystal form IV
  Main peak purity: 99.47%
[1]; 30 days
  physical and chemical stability (conclusion): relatively good physical and chemical stability
[2]; 25° C., 60%RH
  Purity, 1 month: 99.40%
[2]; 40° C., 75%RH
  Purity, 1 month: 99.34%
[2]
  Purity, Initial: 99.46%
  physical and chemical stability (conclusion): good physical and chemical stability

## Br.Cn1nccc1Nc1nccc(-c2cc3n(c2)C(=O)N([C@H](CO)c2cccc(Cl)c2)C3)n1 [Hydrobromide in crystal form α]
[1]; 40° C., open, 7 days
  Color and appearance: Off-white solid
  Crystal form: Did not change
  Main peak purity: 99.42%
[1]; 40° C., open, 14 days
  Color and appearance: Off-white solid
  Crystal form: Did not change
  Main peak purity: 99.32%
[1]; 40° C., open, 30 days
  Color and appearance: Off-white solid
  Crystal form: Did not change
  Main peak purity: 99.28%
[1]; 60° C., open, 7 days
  Color and appearance: Off-white solid
  Crystal form: Did not change
  Main peak purity: 99.38%
[1]; 60° C., open, 14 days
  Color and appearance: Off-white solid
  Crystal form: Did not change
  Main peak purity: 98.99%
[1]; 60° C., open, 30 days
  Color and appearance: Off-white solid
  Crystal form: Did not change
  Main peak purity: 99.02%
[1]; 75% RH, open, 7 days
  Color and appearance: Off-white solid
  Crystal form: Did not change
  Main peak purity: 99.41%
[1]; 75% RH, open, 14 days
  Color and appearance: Off-white solid
  Crystal form: Did not change
  Main peak purity: 99.30%
[1]; 75% RH, open, 30 days
  Color and appearance: Off-white solid
  Crystal form: Did not change
  Main peak purity: 99.31%
[1]; 92.5% RH, open, 7 days
  Color and appearance: Off-white solid
  Crystal form: Did not change
  Main peak purity: 99.39%
[1]; 92.5% RH, open, 14 days
  Color and appearance: Off-white solid
  Crystal form: Did not change
  Main peak purity: 99.42%
[1]; 92.5% RH, open, 30 days
  Color and appearance: Off-white solid
  Crystal form: Did not change
  Main peak purity: 99.28%
[1]; 4500 Lux, open, 7 days
  Color and appearance: Off-white solid
  Crystal form: Did not change
  Main peak purity: 99.09%
[1]; 4500 Lux, open, 14 days
  Color and appearance: Off-white solid
  Crystal form: Did not change
  Main peak purity: 98.94%
[1]; 4500 Lux, open, 30 days
  Color and appearance: Off-white solid
  Crystal form: Did not change
  Main peak purity: 98.50%
[1]; 30 days
  physical and chemical stability (conclusion): relatively good physical and chemical stability
[2]; 25° C., 60%RH
  Crystal form: α
  Purity, 1 month: 99.33%
[2]; 40° C., 75%RH
  Crystal form: α
  Purity, 1 month: 99.24%
[2]
  Purity, Initial: 99.43%
  physical and chemical stability (conclusion): good physical and chemical stability

## Br.Br.Cn1nccc1Nc1nccc(-c2cc3n(c2)C(=O)N([C@H](CO)c2cccc(Cl)c2)C3)n1 [Hydrobromide in crystal form β]
[1]; 40° C., open, 7 days
  Color and appearance: Off-white solid
  Crystal form: Did not change
  Main peak purity: 99.13%
[1]; 40° C., open, 14 days
  Color and appearance: Off-white solid
  Crystal form: Did not change
  Main peak purity: 99.07%
[1]; 40° C., open, 30 days
  Color and appearance: Off-white solid
  Crystal form: Did not change
  Main peak purity: 98.96%
[1]; 60° C., open, 7 days
  Color and appearance: Off-white solid
  Crystal form: Did not change
  Main peak purity: 98.82%
[1]; 60° C., open, 14 days
  Color and appearance: Off-white solid
  Crystal form: Did not change
  Main peak purity: 98.82%
[1]; 60° C., open, 30 days
  Color and appearance: Off-white solid
  Crystal form: Did not change
  Main peak purity: 98.88%
[1]; 75% RH, open, 7 days
  Color and appearance: Off-white solid
  Crystal form: Did not change
  Main peak purity: 99.13%
[1]; 75% RH, open, 14 days
  Color and appearance: Off-white solid
  Crystal form: Did not change
  Main peak purity: 99.11%
[1]; 75% RH, open, 30 days
  Color and appearance: Off-white solid
  Crystal form: Did not change
  Main peak purity: 99.11%
[1]; 92.5% RH, open, 7 days
  Color and appearance: Off-white solid
  Crystal form: Did not change
  Main peak purity: 99.09%
[1]; 92.5% RH, open, 14 days
  Color and appearance: Off-white solid
  Crystal form: Did not change
  Main peak purity: 99.15%
[1]; 92.5% RH, open, 30 days
  Color and appearance: Off-white solid
  Crystal form: Did not change
  Main peak purity: 98.93%
[1]; 4500 Lux, open, 7 days
  Color and appearance: Off-white solid
  Crystal form: Did not change
  Main peak purity: 98.99%
[1]; 4500 Lux, open, 14 days
  Color and appearance: Off-white solid
  Crystal form: Did not change
  Main peak purity: 98.54%
[1]; 4500 Lux, open, 30 days
  Color and appearance: Off-white solid
  Crystal form: Did not change
  Main peak purity: 98.28%
[1]; Initial, 0 days
  Color and appearance: Off-white solid
  Crystal form: Crystal form β
  Main peak purity: 99.12%
[1]; 30 days
  physical and chemical stability (conclusion): relatively good physical and chemical stability
[2]; 25° C., 60%RH
  Crystal form: β
  Purity, 1 month: 98.99%
[2]; 40° C., 75%RH
  Crystal form: β
  Purity, 1 month: 99.00%
[2]
  Purity, Initial: 99.17%
  physical and chemical stability (conclusion): good physical and chemical stability
